In article doi:10.1101/2025.07.02.662713v1, “A FRET-based high-throughput screening assay for the discovery of Mycobacterium tuberculosis DNA ADP-ribosylglycohydrolase DarG inhibitors” (biorxiv, 2025):

How the values were obtained:
[1] = molecular target: T1, MtbDarG MD; CFP-MtbDarG MD (Mycobacterium tuberculosis, UniProt O53605); test: FRET displacement of PARylated YFP-GAP; format: binding
T1 construct: gene darG

[2] = molecular target: T2, PARP15 MD1 (Homo sapiens, UniProt Q460N3); test: FRET displacement of MARylated YFP-GAP; format: binding
T2 construct: macrodomain 1 only, CFP fusion, produced as described earlier
T2 sequence (Q460N3 78-267 limits assumed): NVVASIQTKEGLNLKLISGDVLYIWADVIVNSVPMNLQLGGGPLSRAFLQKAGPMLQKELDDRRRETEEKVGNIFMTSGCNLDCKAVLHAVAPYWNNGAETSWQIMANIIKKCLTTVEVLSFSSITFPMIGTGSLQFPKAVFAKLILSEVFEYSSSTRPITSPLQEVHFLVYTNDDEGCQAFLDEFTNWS

[3] = molecular target: T3, PARP9 MD1 (Homo sapiens, UniProt Q8IXQ6); test: FRET displacement of MARylated YFP-GAP; format: binding
T3 construct: macrodomain 1 only, CFP fusion, produced as described earlier

[4] = molecular target: T4, T. aq. DarG; T.aq. DarG (Thermus aquaticus, UniProt P0DV57); test: gel-based ADP-ribosyl-ssDNA hydrolysis assay; format: biochemical; conditions: 1 µM hydrolase, pranlukast 2-250 µM, pre-incubation 10 min; Tris pH 7.5, 37 °C, 30 min
T4 construct: recombinant, prepared as previously published
T4 sequence (P0DV57 1-360): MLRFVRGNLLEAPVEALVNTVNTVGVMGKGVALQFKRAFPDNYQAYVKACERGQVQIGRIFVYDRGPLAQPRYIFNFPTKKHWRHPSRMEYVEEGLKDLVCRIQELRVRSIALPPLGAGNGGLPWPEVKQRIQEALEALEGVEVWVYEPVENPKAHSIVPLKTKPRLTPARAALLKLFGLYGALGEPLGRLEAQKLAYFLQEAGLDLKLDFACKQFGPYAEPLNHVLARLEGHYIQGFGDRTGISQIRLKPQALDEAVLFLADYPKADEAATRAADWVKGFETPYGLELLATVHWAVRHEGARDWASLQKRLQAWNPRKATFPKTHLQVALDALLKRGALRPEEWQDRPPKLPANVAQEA
Description: gel-based ADP-ribosyl-ssDNA hydrolysis assay on T. aq. DarG; T.aq.

[5] = molecular target: T5, MtbDarG (hydrolysis assay) (Mycobacterium tuberculosis, UniProt O53605); test: gel-based ADP-ribosyl-ssDNA hydrolysis assay; format: biochemical; conditions: 1 µM hydrolase, pranlukast 2-250 µM, pre-incubation 10 min; Tris pH 7.5, 37 °C, 30 min
T5 construct: gene darG
T5 sequence (O53605 whole entry): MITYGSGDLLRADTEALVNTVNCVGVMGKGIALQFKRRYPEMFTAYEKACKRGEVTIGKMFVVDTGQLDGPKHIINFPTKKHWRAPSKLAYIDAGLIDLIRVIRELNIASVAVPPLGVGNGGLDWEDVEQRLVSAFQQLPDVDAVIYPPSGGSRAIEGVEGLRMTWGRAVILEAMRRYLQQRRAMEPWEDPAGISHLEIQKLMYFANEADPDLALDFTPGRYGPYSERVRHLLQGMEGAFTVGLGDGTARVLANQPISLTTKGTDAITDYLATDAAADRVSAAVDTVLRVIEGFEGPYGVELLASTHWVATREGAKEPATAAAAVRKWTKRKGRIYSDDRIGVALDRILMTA

[6] = molecular target: T6, PARP14 MD1 (Homo sapiens, UniProt Q460N5); test: FRET displacement of MARylated YFP-GAP; format: binding
T6 construct: macrodomain 1 only, CFP fusion, produced as described earlier
T6 sequence (Q460N5 791-978 limits assumed): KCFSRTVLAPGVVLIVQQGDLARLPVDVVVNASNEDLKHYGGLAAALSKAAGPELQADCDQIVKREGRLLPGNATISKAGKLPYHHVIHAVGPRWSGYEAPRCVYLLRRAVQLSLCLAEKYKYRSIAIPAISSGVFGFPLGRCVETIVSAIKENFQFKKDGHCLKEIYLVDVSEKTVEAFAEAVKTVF

[7] = molecular target: T7, SCO6735 (Streptomyces coelicolor, UniProt Q9X7P1); test: gel-based ADP-ribosyl-ssDNA hydrolysis assay; format: biochemical; conditions: 1 µM hydrolase, pranlukast 2-250 µM, pre-incubation 10 min; Tris pH 7.5, 37 °C, 30 min
T7 construct: recombinant, prepared as previously published
T7 sequence (Q9X7P1 1-161): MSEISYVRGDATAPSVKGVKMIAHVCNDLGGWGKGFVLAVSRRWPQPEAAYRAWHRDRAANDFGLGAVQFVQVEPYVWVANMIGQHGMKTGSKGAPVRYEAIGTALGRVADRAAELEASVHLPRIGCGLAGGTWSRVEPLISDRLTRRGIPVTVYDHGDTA

T1 sequence (O53605 1-155): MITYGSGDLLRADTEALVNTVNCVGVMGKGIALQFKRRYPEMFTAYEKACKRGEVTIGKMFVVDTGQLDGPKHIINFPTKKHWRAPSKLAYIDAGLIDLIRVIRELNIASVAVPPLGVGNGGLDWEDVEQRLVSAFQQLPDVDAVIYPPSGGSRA

| SMILES | IC50 [1] [µM] | IC50 [2] [µM] | IC50 [3] [µM] | gel-based ADP-ribosyl-ssDNA hydrolysis assay [4] | gel-based ADP-ribosyl-ssDNA hydrolysis assay [5] | IC50 [6] [µM] | gel-based ADP-ribosyl-ssDNA hydrolysis assay [7] |
| --- | --- | --- | --- | --- | --- | --- | --- |
| COc1ccc(-c2ccccc2)cc1NS(=O)(=O)c1cc(Cl)cc(Cl)c1O [BMS303141] | 18.7 |  |  |  |  |  |  |
| Cc1cc(SCc2sc(-c3ccc(C(F)(F)F)cc3)nc2C)ccc1OCC(=O)O [GW501516] | 56.5 |  |  |  |  |  |  |
| O=C(Nc1cccc2c(=O)cc(-c3nn[nH]n3)oc12)c1ccc(OCCCCc2ccccc2)cc1 [pranlukast] | 4 | ~100 | ~100 | pranlukast exhibited an even higher inhibitory potency against DarG from Thermus aquaticus bacterium | pranlukast inhibited the enzymatic activity of MtbDarG on this ADP-ribosylated ssDNA substrate | ~100 | DarG from Thermus aquaticus bacterium (T.aq. DarG) and SCO6735 |
| O=C(O)C(=O)c1cn(Cc2ccccc2)c2ccc(-c3ccc(OC(F)(F)F)cc3)cc12 [tiplaxtinin] | 5.7 |  |  |  |  |  |  |
